Results as given in publication PMC8797470, “Disruption of the pentraxin 3/CD44 interaction as an efficient therapy for triple‐negative breast cancers” (Clinical and Translational Medicine, 2022).
Ends that are not written are not given here.

Tests used:
PTX3 = settings: read-out: KD for PTX3 binding; cited from earlier work
Excerpt: However, knockdown of CD44 enhanced both JNK and p38 activity, implying that blockade of the PTX3/CD44 interaction positively compensates for JNK and p38 activity.

[1] = test system: RANKL, MMP2, NANOG and TWIST2 transcription in MDA-MB-231 cells; test: Real-time quantitative PCR of PTX3-induced genes; type: cell-based, human; settings: wortmannin 100 nM, BAY 11-7085 2 μM, PD98059 10 μM; pre-treated 1 h, then PTX3 24 h
Excerpt: TRIsure RNA extraction reagent (Invitrogen) extracted total RNA. SuperScript™ III Reverse Transcriptase (Invitrogen) was used to synthesis cDNA. Next, SensiFAST™ SYBR (BIOLINE) was applied to perform real‐time quantitative PCR (Q‐PCR) assay. CFX connect Real‐Time PCR System (BIO‐RAD) executed real‐time fluorescence monitoring and the melting curve analysis according to the manufacturer's recommendations. The following pairs of specific primers—human CEBPD (F): 5′‐[…]‐3′ and CEBPD (R): 5′‐[…]‐3′, human PTX3 (F): 5′‐ […]‐3′ and PTX3 (R): 5′‐ […]‐3′, human MMP2 (F): 5′‐ […]‐3′ and MMP2 (R): 5′‐ […]‐3′, human RANKL (F): 5′‐ AGAGC GCAGATGGATCCTAA‐3′ and RANKL (R): 5′‐ TTCCTTTTGCACAGC TCCTT‐3′, human TWIST2 (F): 5′‐[…]‐3′ and TWIST2 (R): 5′‐[…]‐3′, human NANOG (F): 5′‐[…]‐3′ and NANOG (R): 5′‐ […]‐3′, human GAPDH (F): 5′‐ […]‐3′ and GAPDH (R): 5′‐ […]‐3′.

CD44 [2] = biological target: T1, CD44 (Homo sapiens, UniProt P16070); test: Ligand binding ELISA on immobilised CD44; set-up: purchased Sino Biological Inc. 12211-H08H; settings: wells coated with 10 μg/ml CD44, 2 h, OD 450 nm; for binding to immobilised CD44: HRP-conjugated recombinant proteins; for CD44 binding activity of peptides: biotinylated peptides, modified peptides compared with parental peptides
Protocol: Plate wells (9018; Corning Costar) were coated with 10 μg/ml of CD44 (12211‐H08H; Sino Biological Inc.) in PBS (pH 7.2) and then blocking for 1 h with the blocking buffer including 3% milk in PBS. For the stability binding experiments, the PTX3‐devired biotinylated peptides were pre‐incubated in serum for 1, 2, 4 or 6 h. For the binding experiments, the horseradish peroxidase (HRP)‐conjugated recombinant PTX3, PTX3/N, PTX3/C and PTX3NA or PTX3‐devired biotinylated peptides AD9, GR9, P2rdAD9 and P12rdGR9 (32310; LEADGENE) was responded in the well for 2 h. For the peptide of competition experiments, the PTX3‐devired biotinylated peptides RI37 and GI40 were diluted at the indicated concentration in PBS. After 2 h, PBS washed three times and then incubated with 5 μg/ml HRP‐conjugated PTX3 in PBS for 1 h at room temperature (RT). For the antibody competition experiments, Ab‐10 and Ab‐49 were incubated with 5 μg/ml HRP‐conjugated PTX3 in PBS for 2 h at RT. After incubation, the mixtures was responded in the well for 1 h at RT and then PBS washed three times, tetramethyl benzidine (TMB) was used to detect the bound HRP conjugate. After 15 min, the peroxidase reaction was stopped by adding 0.1 M H2SO4. Next, ELISA plate reader was used to detect the optical densities at 450 nm.
Target sequence in this assay (P16070 21-220 limits assumed): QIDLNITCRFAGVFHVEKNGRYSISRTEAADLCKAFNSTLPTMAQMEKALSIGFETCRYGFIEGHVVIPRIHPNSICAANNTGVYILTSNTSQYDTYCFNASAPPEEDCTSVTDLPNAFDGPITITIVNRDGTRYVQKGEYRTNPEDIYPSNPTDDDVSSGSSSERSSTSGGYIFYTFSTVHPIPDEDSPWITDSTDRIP

CD44 [3] = biological target: T1, CD44; test: Surface plasmon resonance (BIAcore) of N-terminal CD44 on immobilised full-length PTX3; type: binding; settings: mean ± standard deviation
Excerpt: The BIAcore 3000 system (GE Healthcare Co. Ltd.) was used to determine the direct protein interaction between the full‐length PTX3 (#1826‐TS; R&D Systems) and the N‐terminal of CD44 (#CD44‐3961H; Creative Biomart). Full‐length PTX3 was immobilised onto a CM5 sensor chip (GE Healthcare Co. Ltd.); the immobilisation level was 4000–6000 response units using amine‐coupling chemistry. Briefly, a mixture of 1‐Ethyl‐3‐(3‐dimethylaminopropyl) carbodiimide hydrochloride (EDC) and N‐hydroxysuccinimide activated the surface of the chip, and then diluted full‐length PTX3 (10 μg/ml in acetate buffer pH 3) was injected into the flow cells for immobilisation. Finally, the remaining activated groups were blocked by ethanolamine. The binding parameters of the experiment were measured over a 1‐min association phase and then followed by a 2‐min dissociation phase at a fluid flow rate of 10 μl/min. Phosphate‐buffered saline (PBS, pH 7.2) was used as the analyte running buffer; 0.05% sodium dodecyl sulphate was used to regenerate the chip surface before the next analyte concentration was applied. The 1:1 Langmuir binding model (BIAevaluation 4.1; GE Healthcare Co. Ltd.) were performed to calculate its corresponding association and dissociation rate constants to determine the affinity.
Target sequence in this assay (P16070 32-120 limits assumed): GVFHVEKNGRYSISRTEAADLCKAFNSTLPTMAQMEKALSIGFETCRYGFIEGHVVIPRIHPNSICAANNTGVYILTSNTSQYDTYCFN

MDA-MB-231 cells [4] = test: Sphere formation assay; type: cell-based, human; settings: MDA-MB-231 cells treated with the recombinant protein
Protocol: Note that 5 × 10^3 MDA‐MB‐231 cells were seeded in ultralow attachment plates (Corning) per well. Then, cultured in conditional medium containing the treatment of TGF‐β1, PTX3, PTX3NA, RI37, GI40, IgG1κ, PTX3 Ab‐10 or PTX3 Ab‐49 and the DMEM/F12 (Gibco) added with B27 (Invitrogen), 10 ng/ml bFGF (Peprotech) and 20 ng/ml EGF (Abcam). Number of spheres was calculated by microscope after 2 weeks.

MDA-MB-231 cells [5] = test: Transwell migration and Matrigel invasion assays; type: cell-based, human; settings: treatment in lower well, 18 h
Excerpt: (§1) In migration assay, MDA‐MB‐231 cells seeded in 8.0 μm pore polycarbonate membrane inserts (BD Biosciences) in 24‐well plates. In Matrigel invasion assay, inserts were pre‐coated with an appropriate amount of Matrigel first, and the same number of cells seeded on the Matrigel. After cells adhered on the inserts, serum‐free DMEM medium added in the upper wells. Serum‐free medium containing the treatments of TGF‐β1, PTX3, PTX3NA, PTX3/N, PTX3/C, RI37, GI40, AD9, GR9, IgG1κ, PTX3 Ab‐10 or PTX3 Ab‐49 were then mixed into the lower wells of the 24‐well plates. After incubating for 18 h, cells outside the insert were removed by wiping. The inside the inserts were then stained by 4′,6‐diamidino‐2‐phenylindol (DAPI). Fluorescence microscope was used for counting the total number of migrated cells with 200× magnification. Different from the experimental design for the MDA‐MB‐231 cells, the migrated 4T1‐Luc2 cells in the inside of the insert were detected by luciferase activity.

4T1-Luc2 cells = test: Transwell migration assay, luciferase read-out; type: cell-based, mouse; settings: single peptide, with PTX3 treatment
Excerpt: as §1

[6] = BIAcore 3000, full-length PTX3 amine-coupled to CM5 chip, N-terminal CD44 as analyte, PBS pH 7.2, 1:1 Langmuir model

TSG‐6: secretory protein, CEBPD‐responsive gene product that interacts with PTX3
Kd (PTX3): 314 to 648 nM

CC(C)(C)c1ccc(S(=O)(=O)/C=C/C#N)cc1 [BAY 11‐7085]
PTX3-induced RANKL, TWIST2, MMP2 and NANOG transcription with pathway inhibitors [1]: significantly hampered

PTX3/N: recombinant truncated mutant, N‐terminus of PTX3, amino acids 19–182
binding to immobilised CD44 (CD44 [2]): not

pentraxin 3 [PTX3]
association rate constant, K on (CD44 [3]; [6]): 1.30 ± 0.32 × 10^2 M^–1 s^–1
dissociation rate constant, K off (CD44 [3]; [6]): 2.43 ± 2.35 × 10^–6 s^–1
Kd (CD44 [3]; N-terminal CD44 and full-length PTX3 binding, calculated from the rate constants, read-out: equilibrium dissociation constant, K D): 21 ± 12 nM
sphere formation, protein alone (MDA-MB-231 cells [4]): promoted
binding to immobilised CD44 (CD44 [2]): could bind
migration and invasion, protein alone (MDA-MB-231 cells [5]): enhanced

COc1cccc(-c2cc(=O)c3ccccc3o2)c1N [PD98059]
PTX3-induced RANKL, TWIST2, MMP2 and NANOG transcription with pathway inhibitors [1]: significantly hampered

COC[C@H]1OC(=O)c2coc3c2[C@@]1(C)C1=C(C3=O)[C@@H]2CCC(=O)[C@@]2(C)C[C@H]1OC(C)=O [wortmannin]
PTX3-induced RANKL, TWIST2, MMP2 and NANOG transcription with pathway inhibitors [1]: significantly hampered

GR9: peptide, PTX3 amino acids 352–360 (GGAESCHIR; also: biotin, position not given here)
CD44 binding activity of peptides (CD44 [2]): significantly high binding activity
PTX3-induced migration of 4T1-Luc2 cells (4T1-Luc2 cells): efficiently inhibited

AD9: peptide, PTX3 amino acids 209–217 (ACIWVKATD; also: biotin, position not given here)
CD44 binding activity of peptides (CD44 [2]): significantly high binding activity
PTX3-induced migration of 4T1-Luc2 cells (4T1-Luc2 cells): efficiently inhibited
